Measured values as given in the CheMixHub viscosity set.
± gives the uncertainty stated by the source.

Assay: xn = mol fraction of the nth substance listed

ClC(Cl)=C(Cl)Cl + c1ccncc1
298.15 K, 101 kPa
Conditions | viscosity [mPa·s]
x1 = 0.0296 | 0.8879 ± 0.0075
x1 = 0.1254 | 0.8794 ± 0.0075
x1 = 0.1862 | 0.875 ± 0.0074
x1 = 0.2246 | 0.8719 ± 0.0074
x1 = 0.2887 | 0.8657 ± 0.0073
x1 = 0.4448 | 0.8496 ± 0.0072
x1 = 0.5638 | 0.8411 ± 0.0071
x1 = 0.6271 | 0.837 ± 0.0071
x1 = 0.7214 | 0.8324 ± 0.0071
x1 = 0.842 | 0.8315 ± 0.0071
x1 = 0.9127 | 0.8331 ± 0.0071
x1 = 0.9559 | 0.8373 ± 0.0071

CCCCCCCCCCCCCC + Clc1ccccc1
viscosity [mPa·s], 101 kPa
Conditions | x1 = 0.1001 | x1 = 0.1937 | x1 = 0.295 | x1 = 0.3916 | x1 = 0.494 | x1 = 0.5998 | x1 = 0.6984 | x1 = 0.8002 | x1 = 0.9001
298.15 K | 0.844 ± 0.083 | 0.945 ± 0.091 | 1.063 ± 0.1 | 1.151 ± 0.11 | 1.266 ± 0.12 | 1.38 ± 0.13 | 1.495 ± 0.14 | 1.609 ± 0.15 | 1.724 ± 0.16
303.15 K | 0.789 ± 0.078 | 0.877 ± 0.085 | 0.964 ± 0.093 | 1.097 ± 0.1 | 1.161 ± 0.11 | 1.226 ± 0.11 | 1.291 ± 0.12 | 1.354 ± 0.12 | 1.419 ± 0.13
308.15 K | 0.746 ± 0.074 | 0.819 ± 0.081 | 0.932 ± 0.09 | 0.991 ± 0.095 | 1.041 ± 0.099 | 1.19 ± 0.11 | 1.241 ± 0.12 | 1.219 ± 0.11 | 1.397 ± 0.13

CCI + CCOC(C)=O
Conditions | viscosity [mPa·s]
298.15 K, 101 kPa, x2 = 0.7859 | 0.462 ± 0.006

CN(C)C=O + CCCCO
Conditions | viscosity [mPa·s]
298.15 K, 101 kPa, x1 = 0.5035 | 1.381 ± 0.34

CCOCCOCCO + ClC=C(Cl)Cl
298.15 K, 101.33 kPa
Conditions | viscosity [mPa·s]
x1 = 0.0082 | 0.539 ± 0.006
x1 = 0.0263 | 0.563 ± 0.006
x1 = 0.0381 | 0.58 ± 0.006
x1 = 0.0517 | 0.602 ± 0.006
x1 = 0.0641 | 0.62 ± 0.006
x1 = 0.0756 | 0.639 ± 0.007
x1 = 0.0944 | 0.669 ± 0.007
x1 = 0.129 | 0.736 ± 0.007
x1 = 0.1724 | 0.823 ± 0.008
x1 = 0.2108 | 0.91 ± 0.009
x1 = 0.2459 | 0.997 ± 0.01
x1 = 0.2921 | 1.117 ± 0.011
x1 = 0.3336 | 1.235 ± 0.012
x1 = 0.3791 | 1.376 ± 0.014
x1 = 0.4231 | 1.528 ± 0.015
x1 = 0.457 | 1.659 ± 0.016
x1 = 0.4908 | 1.788 ± 0.018
x1 = 0.5204 | 1.902 ± 0.019
x1 = 0.557 | 2.042 ± 0.02
x1 = 0.5875 | 2.163 ± 0.021
x1 = 0.632 | 2.342 ± 0.023
x1 = 0.6736 | 2.519 ± 0.025
x1 = 0.7163 | 2.701 ± 0.027
x1 = 0.7635 | 2.912 ± 0.029
x1 = 0.7976 | 3.068 ± 0.031
x1 = 0.8333 | 3.224 ± 0.033
x1 = 0.8779 | 3.423 ± 0.035
x1 = 0.9203 | 3.621 ± 0.037
x1 = 0.9414 | 3.723 ± 0.039
x1 = 0.9717 | 3.857 ± 0.04
x2 = 0.018 | 3.895 ± 0.041

CCCCCCCCCCCCCC + CCCCCO
viscosity [mPa·s], 101.33 kPa
Conditions | x1 = 0.0999 | x1 = 0.2002 | x1 = 0.3001 | x1 = 0.3987 | x1 = 0.5009 | x1 = 0.6004 | x1 = 0.6996 | x1 = 0.8014 | x1 = 0.9002
293.15 K | 3.262 ± 0.33 | 2.941 ± 0.3 | 2.698 ± 0.27 | 2.52 ± 0.25 | 2.396 ± 0.24 | 2.31 ± 0.23 | 2.26 ± 0.23 | 2.234 ± 0.22 | 2.243 ± 0.23
303.15 K | 2.499 ± 0.25 | 2.274 ± 0.23 | 2.103 ± 0.21 | 1.982 ± 0.2 | 1.896 ± 0.19 | 1.845 ± 0.19 | 1.82 ± 0.18 | 1.817 ± 0.18 | 1.829 ± 0.18
313.15 K | 1.963 ± 0.2 | 1.797 ± 0.18 | 1.674 ± 0.17 | 1.588 ± 0.16 | 1.531 ± 0.15 | 1.5 ± 0.15 | 1.491 ± 0.15 | 1.501 ± 0.15 | 1.519 ± 0.15
323.15 K | 1.556 ± 0.16 | 1.441 ± 0.14 | 1.353 ± 0.14 | 1.297 ± 0.13 | 1.259 ± 0.13 | 1.241 ± 0.12 | 1.246 ± 0.13 | 1.262 ± 0.13 | 1.285 ± 0.13
